Key:
[1] = target: T1, Bromodomain testis-specific protein [21-137] (Homo sapiens, UniProt Q58F21); test: AlphaScreen BRD Binding Assay; settings: pH 7.5; 25 °C
T1 construct: 21-137

[2] = target: T2, Bromodomain-containing protein 4 [44-168] (Human, UniProt O60885); test: AlphaScreen BRD Binding Assay; settings: pH 7.5; 25 °C
T2 construct: 44-168

[3] = target: T2, Bromodomain-containing protein 4 [44-168]; test: BROMOscan Assay
[4] = target: T3, Bromodomain-containing protein 4 [44-168,333-460] (Homo sapiens, UniProt O60885); test: BROMOscan Assay
T3 construct: 44-168,333-460

[5] = target: T1, Bromodomain testis-specific protein [21-137]; test: Bromodomains Assay for DiscoveRx Gene Symbol
[6] = target: T4, Bromodomain-containing protein 3 [24-144] (Homo sapiens, UniProt Q15059); test: Bromodomains Assay for DiscoveRx Gene Symbol
T4 construct: 24-144

[7] = target: T5, Bromodomain-containing protein 3 [306-416] (Homo sapiens, UniProt Q15059); test: Bromodomains Assay for DiscoveRx Gene Symbol
T5 construct: 306-416

[8] = target: T6, Bromodomain testis-specific protein [21-137,251-382] (Homo sapiens, UniProt Q58F21); test: Bromodomains Assay for DiscoveRx Gene Symbol
T6 construct: 21-137,251-382

[9] = target: T7, Bromodomain-containing protein 3 [24-144,306-416] (Homo sapiens, UniProt Q15059); test: Bromodomains Assay for DiscoveRx Gene Symbol
T7 construct: 24-144,306-416

[10] = target: T8, Bromodomain testis-specific protein [251-382] (Homo sapiens, UniProt Q58F21); test: Bromodomains Assay for DiscoveRx Gene Symbol
T8 construct: 251-382

[11] = target: T6, Bromodomain testis-specific protein [21-137,251-382]; test: BROMOscan Assay
[12] = target: T9, Bromodomain-containing protein 2 [71-194,348-455] (Homo sapiens, UniProt P25440); test: Bromodomains Assay for DiscoveRx Gene Symbol
T9 construct: 71-194,348-455
T9 sequence (P25440 as listed by the source): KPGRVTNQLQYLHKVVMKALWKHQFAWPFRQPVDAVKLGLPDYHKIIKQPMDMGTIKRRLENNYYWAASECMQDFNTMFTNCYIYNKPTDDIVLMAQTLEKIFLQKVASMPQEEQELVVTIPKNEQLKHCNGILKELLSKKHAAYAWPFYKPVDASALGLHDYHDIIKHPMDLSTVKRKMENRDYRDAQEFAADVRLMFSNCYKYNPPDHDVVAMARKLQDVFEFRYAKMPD

T5 sequence (Q15059 306-416): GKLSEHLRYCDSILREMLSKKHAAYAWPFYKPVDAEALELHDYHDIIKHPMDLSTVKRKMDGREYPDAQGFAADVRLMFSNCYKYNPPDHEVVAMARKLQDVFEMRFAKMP
T7 sequence (Q15059 as listed by the source): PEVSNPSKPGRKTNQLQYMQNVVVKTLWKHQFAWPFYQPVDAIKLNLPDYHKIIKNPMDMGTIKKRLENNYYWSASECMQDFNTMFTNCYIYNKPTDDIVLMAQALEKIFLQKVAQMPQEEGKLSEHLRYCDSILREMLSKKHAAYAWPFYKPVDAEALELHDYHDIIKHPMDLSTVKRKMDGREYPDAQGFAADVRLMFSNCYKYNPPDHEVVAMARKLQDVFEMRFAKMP
T4 sequence (Q15059 24-144): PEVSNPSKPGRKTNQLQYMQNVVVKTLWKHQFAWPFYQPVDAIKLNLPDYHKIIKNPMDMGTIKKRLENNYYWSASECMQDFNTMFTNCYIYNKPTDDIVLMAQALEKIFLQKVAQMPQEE

Structure (SMILES)	IC50 [1] [nM]	IC50 [2] [nM]	also measured
COC(=O)CC1N=C(c2ccc(Cl)cc2)c2c(sc(C(=O)NCCNC(=O)Cn3c(=O)n([C@H](C)c4ccccn4)c4c5cc(OC)c(-c6c(C)noc6C)cc5ncc43)c2C)-n2c(C)nnc21 (stereo partly drawn) [2S+IBET-PEG0 (23)]	596	439	–
COC(=O)CC1N=C(c2ccc(Cl)cc2)c2c(sc(C(=O)NCCOCCNC(=O)Cn3c(=O)n([C@H](C)c4ccccn4)c4c5cc(OC)c(-c6c(C)noc6C)cc5ncc43)c2C)-n2c(C)nnc21 (stereo partly drawn) [2S+IBET-PEG1 (24)]	40.3	18.1	–
COC(=O)CC1N=C(c2ccc(Cl)cc2)c2c(sc(C(=O)NCCOCCOCCNC(=O)Cn3c(=O)n([C@H](C)c4ccccn4)c4c5cc(OC)c(-c6c(C)noc6C)cc5ncc43)c2C)-n2c(C)nnc21 (stereo partly drawn) [2S+IBET-PEG2 (25)]	23.2	5.8	–
COC(=O)CC1N=C(c2ccc(Cl)cc2)c2c(sc(C(=O)NCCOCCOCCOCCNC(=O)Cn3c(=O)n([C@H](C)c4ccccn4)c4c5cc(OC)c(-c6c(C)noc6C)cc5ncc43)c2C)-n2c(C)nnc21 (stereo partly drawn) [2S+IBET-PEG3 (26)]	31.7	11.3	–
COC(=O)CC1N=C(c2ccc(Cl)cc2)c2c(sc(C(=O)NCCOCCOCCOCCOCCNC(=O)Cn3c(=O)n([C@H](C)c4ccccn4)c4c5cc(OC)c(-c6c(C)noc6C)cc5ncc43)c2C)-n2c(C)nnc21 (stereo partly drawn) [2S+IBET-PEG4 (27)]	21.7	10.3	–
COC(=O)CC1N=C(c2ccc(Cl)cc2)c2c(sc(C(=O)NCCOCCOCCOCCOCCOCCOCCOCCNC(=O)Cn3c(=O)n([C@H](C)c4ccccn4)c4c5cc(OC)c(-c6c(C)noc6C)cc5ncc43)c2C)-n2c(C)nnc21 (stereo partly drawn) [2S+IBET-PEG7 (28)]	13.2	17.4	–
COc1cc2c(cc1-c1c(C)noc1C)ncc1c2n([C@H](C)c2ccccn2)c(=O)n1CC(=O)NCCNC(=O)C[C@@H]1N=C(c2ccc(Cl)cc2)c2c(sc(C)c2C)-n2c(C)nnc21 [6S+IBET-PEG0 (17)]	148	404	–
COc1cc2c(cc1-c1c(C)noc1C)ncc1c2n([C@H](C)c2ccccn2)c(=O)n1CC(=O)NCCOCCNC(=O)C[C@@H]1N=C(c2ccc(Cl)cc2)c2c(sc(C)c2C)-n2c(C)nnc21 [6S+IBET-PEG1 (18)]	12.1	54	–
COc1cc2c(cc1-c1c(C)noc1C)ncc1c2n([C@H](C)c2ccccn2)c(=O)n1CC(=O)NCCOCCOCCNC(=O)C[C@@H]1N=C(c2ccc(Cl)cc2)c2c(sc(C)c2C)-n2c(C)nnc21 [6S+IBET-PEG2 (19)]	10	58.6	Kd [3]: 0.062 nM
COc1cc2c(cc1-c1c(C)noc1C)ncc1c2n([C@H](C)c2ccccn2)c(=O)n1CC(=O)NCCOCCOCCOCCNC(=O)C[C@@H]1N=C(c2ccc(Cl)cc2)c2c(sc(C)c2C)-n2c(C)nnc21 [6S+IBET-PEG3 (20)]	5.78	27.4	–
COc1cc2c(cc1-c1c(C)noc1C)ncc1c2n([C@H](C)c2ccccn2)c(=O)n1CC(=O)NCCOCCOCCOCCOCCNC(=O)C[C@@H]1N=C(c2ccc(Cl)cc2)c2c(sc(C)c2C)-n2c(C)nnc21 [6S+IBET-PEG4 (21)]	6.2	29.5	–
COc1cc2c(cc1-c1c(C)noc1C)ncc1c2n([C@H](C)c2ccccn2)c(=O)n1CC(=O)NCCOCCOCCOCCOCCOCCOCCOCCNC(=O)C[C@@H]1N=C(c2ccc(Cl)cc2)c2c(sc(C)c2C)-n2c(C)nnc21 [6S+IBET-PEG7 (22)]	6.1	11.5	–
COC(=O)C[C@@H]1N=C(c2ccc(Cl)cc2)c2c(sc(C(=O)NCCOCCNC(=O)c3sc4c(c3C)C(c3ccc(Cl)cc3)=N[C@H](CC(=O)OC)c3nnc(C)n3-4)c2C)-n2c(C)nnc21 [(2S+2S)-PEG1 (5)]	–	1.17	–
COC(=O)C[C@@H]1N=C(c2ccc(Cl)cc2)c2c(sc(C(=O)NCCNC(=O)C[C@@H]3N=C(c4ccc(Cl)cc4)c4c(sc(C)c4C)-n4c(C)nnc43)c2C)-n2c(C)nnc21 [(6S+2S)-PEG0 (6)]	2.36	3.58	Kd [3]: 0.034 nM; Kd [4]: 0.047 nM
COC(=O)C[C@@H]1N=C(c2ccc(Cl)cc2)c2c(sc(C(=O)NCCOCCNC(=O)C[C@@H]3N=C(c4ccc(Cl)cc4)c4c(sc(C)c4C)-n4c(C)nnc43)c2C)-n2c(C)nnc21 [(6S+2S)-PEG1 (7)]	0.574	–	Ki [5]: 0.29 nM; Ki [6]: 0.13 nM; Ki [7]: 0.0027 nM; Ki [8]: 0.42 nM; Ki [9]: 0.11 nM; Kd [10]: 0.066 nM; Kd [11]: 0.039 nM
COC(=O)C[C@@H]1N=C(c2ccc(Cl)cc2)c2c(sc(C(=O)NCCOCCOCCNC(=O)C[C@@H]3N=C(c4ccc(Cl)cc4)c4c(sc(C)c4C)-n4c(C)nnc43)c2C)-n2c(C)nnc21 [(6S+2S)-PEG2 (8)]	1.84	1.28	Kd [3]: 0.014 nM; Kd [4]: 0.0091 nM
COC(=O)C[C@@H]1N=C(c2ccc(Cl)cc2)c2c(sc(C(=O)NCCOCCOCCOCCNC(=O)C[C@@H]3N=C(c4ccc(Cl)cc4)c4c(sc(C)c4C)-n4c(C)nnc43)c2C)-n2c(C)nnc21 [(6S+2S)-PEG3 (9)]	0.878	2.25	Kd [3]: 0.029 nM; Kd [4]: 0.0075 nM
COC(=O)C[C@@H]1N=C(c2ccc(Cl)cc2)c2c(sc(C(=O)NCCOCCOCCOCCOCCNC(=O)C[C@@H]3N=C(c4ccc(Cl)cc4)c4c(sc(C)c4C)-n4c(C)nnc43)c2C)-n2c(C)nnc21 [(6S+2S)-PEG4 (10)]	1.09	2.95	Kd [3]: 0.023 nM; Kd [4]: 0.0066 nM
COC(=O)C[C@@H]1N=C(c2ccc(Cl)cc2)c2c(sc(C(=O)NCCOCCOCCOCCOCCOCCOCCOCCNC(=O)C[C@@H]3N=C(c4ccc(Cl)cc4)c4c(sc(C)c4C)-n4c(C)nnc43)c2C)-n2c(C)nnc21 [(6S+2S)-PEG7 (11)]	1.59	0.789	Kd [3]: 0.026 nM; Kd [4]: 0.0059 nM
COc1cc2c(cc1-c1c(C)noc1C)ncc1c2n([C@H](C)c2ccccn2)c(=O)n1CC(=O)NCCNC(=O)Cn1c(=O)n([C@@H](C)c2ccccn2)c2c3cc(OC)c(-c4c(C)noc4C)cc3ncc21 [IBETx2-PEG0 (29)]	203	209	–
COc1cc2c(cc1-c1c(C)noc1C)ncc1c2n([C@H](C)c2ccccn2)c(=O)n1CC(=O)NCCOCCNC(=O)Cn1c(=O)n([C@@H](C)c2ccccn2)c2c3cc(OC)c(-c4c(C)noc4C)cc3ncc21 [IBETx2-PEG1 (30)]	203	108	–
COc1cc2c(cc1-c1c(C)noc1C)ncc1c2n([C@H](C)c2ccccn2)c(=O)n1CC(=O)NCCOCCOCCNC(=O)Cn1c(=O)n([C@@H](C)c2ccccn2)c2c3cc(OC)c(-c4c(C)noc4C)cc3ncc21 [IBETx2-PEG2 (31)]	123	117	–
COc1cc2c(cc1-c1c(C)noc1C)ncc1c2n([C@H](C)c2ccccn2)c(=O)n1CC(=O)NCCOCCOCCOCCNC(=O)Cn1c(=O)n([C@@H](C)c2ccccn2)c2c3cc(OC)c(-c4c(C)noc4C)cc3ncc21 [IBETx2-PEG3 (32)]	64.6	53.4	–
COc1cc2c(cc1-c1c(C)noc1C)ncc1c2n([C@H](C)c2ccccn2)c(=O)n1CC(=O)NCCOCCOCCOCCOCCNC(=O)Cn1c(=O)n([C@@H](C)c2ccccn2)c2c3cc(OC)c(-c4c(C)noc4C)cc3ncc21 [IBETx2-PEG4 (33)]	60.2	73.7	–
COc1cc2c(cc1-c1c(C)noc1C)ncc1c2n([C@H](C)c2ccccn2)c(=O)n1CC(=O)NCCOCCOCCOCCOCCOCCOCCOCCNC(=O)Cn1c(=O)n([C@@H](C)c2ccccn2)c2c3cc(OC)c(-c4c(C)noc4C)cc3ncc21 [IBETx2-PEG7 (34)]	13.6	30.5	–
Cc1sc2c(c1C)C(c1ccc(Cl)cc1)=NC(CC(=O)NCCOCCOCCOCCOCCOCCOCCOCCNC(=O)C[C@@H]1N=C(c3ccc(Cl)cc3)c3c(sc(C)c3C)-n3c(C)nnc31)c1nnc(C)n1-2 (stereo partly drawn) [MTI (35)]	–	–	Ki [7]: 0.07 nM; Ki [12]: 0.024 nM
